Measurements taken from patent publication US20050282755A1, “Compositions having antimicrobial activity and uses thereof” (priority 2004, published 2005).
Values after ≈ are worked out from the molar mass of the structure shown. Starred links: 1 amine or outer side, 2 acyl side, 3 side chain; linkers in the order of their positions; H or OH if unused. Non-standard residues stand in square brackets, D forms with d. Residues, ends and D or L forms follow the SMILES beside them. *: point of attachment. Ethylenediamine = C(CN[*:2])N[*:1]; Lauroyl = CCCCCCCCCCCC(=O)*; Hexanoyl = CCCCCC(=O)*

Legend:
[1] = system: Staphylococcus aureus ATCC 29213; assay: MIC, NCCLS M7-A6 broth microdilution, cation-adjusted Mueller Hinton broth (Table 9, no superscript); format: cell-based; conditions: ATCC 29213
Experimental: (§1) Cation-adjusted Mueller Hinton broth was used in the broth microdilution method. In brief, a log-phase bacterial suspension was used to inoculate wells of a 96-well plate so that the final inoculum for each well contained 5×10^5 to 1×10^6 CFU/milliliter. […] Plates were incubated overnight at 37° C. The lowest concentration of peptide that contained no visible growth as evidenced by a lack of turbidity when compared to the control (no peptide) was determined as the MIC. Unless otherwise noted, MIC values listed in Table 9 utilized this method of MIC determination.

[2] = system: Salmonella dublin (Lane); assay: MIC, NCCLS M7-A6 broth microdilution (Table 9, no superscript); format: cell-based
Experimental: as §1

## CSCC[C@H](NC(=O)[C@H](Cc1ccccc1)NC(=O)[C@H](CC(N)=O)NC(=O)[C@H](CCCNC(=N)N)NC(=O)[C@H](CO)NC(=O)[C@H](Cc1c[nH]c2ccccc12)NC(=O)[C@H](CC(=O)O)NC(=O)[C@H](CCCNC(=N)N)NC(=O)[C@H](Cc1c[nH]c2ccccc12)NC(=O)[C@H](CCCNC(=N)N)NC(=O)[C@H](CO)NC(=O)[C@H](CCCNC(=N)N)NC(=O)CNC(=O)[C@@H](NC(=O)[C@H](CCCNC(=N)N)NC(=O)[C@H](CO)NC(=O)[C@@H](NC(=O)[C@H](CCCNC(=N)N)NC(=O)[C@@H](NC(C)=O)[C@@H](C)O)C(C)C)[C@@H](C)O)C(=O)N[C@@H](CCCNC(=N)N)C(=O)N[C@@H](C)C(=O)N[C@@H](C)C(=O)N[C@@H](CCCNC(=N)N)C(=O)N[C@@H](CCCNC(=N)N)C(=O)N[C@@H](CCCNC(=N)N)C(=O)N[C@@H](CCCNC(=N)N)C(=O)N[C@@H](CCCNC(=N)N)C(N)=O [Peptide 10] (Ac-TRVSRTGRSRWRDWSRNFMRAARRRRR-NH2)
[1]
  MIC S. aureus: >64 µg/mL
[2]
  MIC S. dublin: 64 µg/mL (≈ 17.9 µM)

## CCCCCCCCCCCC(=O)NCCNC(=O)C[C@H](CCCNC(=N)N)NC(=O)C[C@H](CC(C)C)NC(=O)C[C@H](Cc1ccccc1)NC(=O)C[C@H](CCCNC(=N)N)NC(=O)C[C@H](CC(N)=O)NC(=O)C[C@@H](NC(=O)C[C@H](CCCNC(=N)N)NC(=O)C[C@H](CC(=O)O)NC(=O)C[C@@H](NC(=O)C[C@H](CCCNC(=N)N)NC(=O)C[C@H](CO)NC(=O)C[C@H](Cc1c[nH]c2ccccc12)NC(=O)C[C@@H](N)CCCNC(=N)N)[C@@H](C)CC)[C@@H](C)CC [Peptide 216, H2N-RWSRIDRINRFLR-Ethylamidolauryl all amino acids are beta3]
[1]
  MIC S. aureus: 8 µg/mL (≈ 3.64 µM)
[2]
  MIC S. dublin: 16 µg/mL (≈ 7.29 µM)

## CCCCCCCCCCCC(=O)NCCNC(=O)[C@H](CCCNC(=N)N)NC(=O)[C@H](CC(C)C)NC(=O)[C@H](Cc1ccccc1)NC(=O)[C@H](CC(N)=O)NC(=O)[C@H](CCCNC(=N)N)NC(=O)[C@H](C)NC(=O)[C@@H](NC(=O)[C@H](CC(=O)O)NC(=O)[C@H](CCCNC(=N)N)NC(=O)[C@H](Cc1c[nH]c2ccccc12)NC(=O)[C@H](CCCNC(=N)N)NC(=O)[C@H](CO)NC(=O)[C@@H](N)CCCNC(=N)N)C(C)C [Peptide 171, H2N-RSRWRDVARNFLR-Ethylamidolauryl] (H-RSRWRDVARNFLR-{Ethylenediamine-Lauroyl}; C-terminus assumed)
[1]
  MIC S. aureus: 8 µg/mL (≈ 4.09 µM)
[2]
  MIC S. dublin: 8 µg/mL (≈ 4.09 µM)

## CCCCCC(=O)NCCCC[C@H](NC(=O)[C@H](CCCNC(=N)N)NC(=O)[C@H](CCSC)NC(=O)[C@H](Cc1ccccc1)NC(=O)[C@H](CC(N)=O)NC(=O)[C@H](CCCNC(=N)N)NC(=O)[C@H](C)NC(=O)[C@@H](NC(=O)[C@H](CC(=O)O)NC(=O)[C@H](CCCNC(=N)N)NC(=O)[C@H](Cc1c[nH]c2ccccc12)NC(=O)[C@H](CCCNC(=N)N)NC(=O)[C@H](CO)NC(=O)[C@@H](N)CCCNC(=N)N)C(C)C)C(N)=O [Peptide 183, H2N-RSRWRDVARNFMRK(Hexanyl)-NH2] (H-RSRWRDVARNFMRK(Hexanoyl)-NH2)
[1]
  MIC S. aureus: >64 µg/mL
[2]
  MIC S. dublin: >64 µg/mL

## CCCCCCCCCCCC(=O)N[C@@H](CCCNC(=N)N)C(=O)N[C@@H](CC(=O)O)C(=O)N[C@H](C(=O)N[C@@H](C)C(=O)N[C@@H](CCCNC(=N)N)C(=O)N[C@@H](CC(N)=O)C(=O)N[C@@H](Cc1ccccc1)C(N)=O)C(C)C [Peptide 107, Lauryl-RDVARNF-NH2] (Lauroyl-RDVARNF-NH2)
[1]
  MIC S. aureus: >64 µg/mL
[2]
  MIC S. dublin: >64 µg/mL

## CSCC[C@H](NC(=O)[C@H](Cc1ccccc1)NC(=O)[C@H](CC(N)=O)NC(=O)[C@H](CCCNC(=N)N)NC(=O)[C@H](CO)NC(=O)[C@H](Cc1c[nH]c2ccccc12)NC(=O)[C@H](CC(=O)O)NC(=O)[C@H](CCCNC(=N)N)NC(=O)[C@H](Cc1c[nH]c2ccccc12)NC(=O)[C@H](CCCNC(=N)N)NC(=O)[C@H](CO)NC(=O)[C@H](CCCNC(=N)N)NC(=O)CNC(=O)[C@@H](NC(=O)[C@H](CCCNC(=N)N)NC(=O)[C@H](CO)NC(=O)[C@@H](NC(=O)[C@H](CCCNC(=N)N)NC(=O)[C@@H](NC(C)=O)[C@@H](C)O)C(C)C)[C@@H](C)O)C(=O)N[C@@H](CCCNC(=N)N)C(=O)N[C@@H](C)C(=O)N[C@@H](C)C(=O)N[C@@H](CCCCN)C(=O)N[C@@H](CCCCN)C(=O)N[C@@H](CCCCN)C(=O)N[C@@H](CCCCN)C(=O)N[C@@H](CCCCN)C(=O)N[C@@H](CCCCN)C(N)=O [Peptide 7] (Ac-TRVSRTGRSRWRDWSRNFMRAAKKKKKK-NH2)
[1]
  MIC S. aureus: >64 µg/mL
[2]
  MIC S. dublin: >64 µg/mL

## CSCC[C@H](NC(=O)[C@H](Cc1ccccc1)NC(=O)[C@H](CC(N)=O)NC(=O)[C@H](CCCNC(=N)N)NC(=O)[C@H](CO)NC(=O)[C@H](Cc1c[nH]c2ccccc12)NC(=O)[C@H](CC(=O)O)NC(=O)[C@H](CCCNC(=N)N)NC(=O)[C@H](Cc1c[nH]c2ccccc12)NC(=O)[C@H](CCCNC(=N)N)NC(=O)[C@H](CO)NC(=O)[C@H](CCCNC(=N)N)NC(=O)CNC(=O)[C@@H](NC(=O)[C@H](CCCNC(=N)N)NC(=O)[C@H](CO)NC(=O)[C@@H](NC(=O)[C@H](CCCNC(=N)N)NC(=O)[C@@H](NC(=O)[C@H](C)NC(=O)[C@H](C)NC(=O)[C@H](CCCCN)NC(=O)[C@H](CCCCN)NC(=O)[C@H](CCCCN)NC(=O)[C@H](CCCCN)NC(C)=O)[C@@H](C)O)C(C)C)[C@@H](C)O)C(=O)N[C@@H](CCCNC(=N)N)C(=O)N[C@@H](C)C(=O)N[C@@H](C)C(=O)N[C@@H](CCCCN)C(=O)N[C@@H](CCCCN)C(=O)N[C@@H](CCCCN)C(=O)N[C@@H](CCCCN)C(N)=O [Peptide 8] (Ac-KKKKAATRVSRTGRSRWRDWSRNFMRAAKKKK-NH2)
[1]
  MIC S. aureus: >64 µg/mL
[2]
  MIC S. dublin: >64 µg/mL

## CCCCCCCCCCCC(=O)N[C@H](CCCNC(=N)N)C(=O)N[C@H](CC(C)C)C(=O)N[C@H](CCCNC(=N)N)C(=O)N[C@H](Cc1c[nH]c2ccccc12)C(=O)N[C@H](CCCNC(=N)N)C(=O)N[C@H](CC(C)C)C(=O)N[C@@H](C(=O)N[C@H](CC(C)C)C(=O)N[C@H](CCCNC(=N)N)C(=O)N[C@H](CC(C)C)C(=O)N[C@H](Cc1ccccc1)C(=O)N[C@H](CC(C)C)C(=O)N[C@H](CCCNC(=N)N)C(N)=O)C(C)C [Peptide 218, Lauryl-rlrwrlvlrlflr-NH2] (Lauroyl-[dR][dL][dR][dW][dR][dL][dV][dL][dR][dL][dF][dL][dR]-NH2)
[1]
  MIC S. aureus: >64 µg/mL
[2]
  MIC S. dublin: >64 µg/mL

## CSCC[C@H](NC(=O)[C@H](Cc1ccccc1)NC(=O)[C@H](CC(N)=O)NC(=O)[C@H](CCCNC(=N)N)NC(=O)[C@H](CO)NC(=O)[C@H](Cc1c[nH]c2ccccc12)NC(=O)[C@H](CC(=O)O)NC(=O)[C@H](CCCNC(=N)N)NC(=O)[C@H](Cc1c[nH]c2ccccc12)NC(=O)[C@H](CCCNC(=N)N)NC(=O)[C@H](CO)NC(=O)[C@H](CCCNC(=N)N)NC(=O)CNC(=O)[C@@H](NC(=O)[C@H](CCCNC(=N)N)NC(=O)[C@H](CO)NC(=O)[C@@H](NC(=O)[C@H](CCCNC(=N)N)NC(=O)[C@@H](NC(C)=O)[C@@H](C)O)C(C)C)[C@@H](C)O)C(=O)N[C@@H](CCCNC(=N)N)C(=O)N[C@@H](CC(C)C)C(=O)N[C@@H](CC(C)C)C(N)=O [Peptide 19] (Ac-TRVSRTGRSRWRDWSRNFMRLL-NH2)
[1]
  MIC S. aureus: >64 µg/mL
[2]
  MIC S. dublin: 32 µg/mL (≈ 11.1 µM)
